Measurements from US4861788A, “Antibacterial 1-normon-2-yl-heterocyclic compounds” (Beecham Group plc, priority 1983, dated 1989).
Values after ≈ are worked out from the molar mass of the structure shown.

Legend:
M. hyopneumoniae JF 435 = assay: MIC against Mycoplasma in vitro (Friis broth with agarose); assay type: cell-based; settings: Mesomycoplasma hyopneumoniae, JF435, 144 h; M. hyopneumoniae JF 435; 6 days at 37° C; read-out: MIC
M. hyopneumoniae MS 16 = assay: as above; assay type: cell-based; settings: Mesomycoplasma hyopneumoniae, MS16, 144 h; M. hyopneumoniae MS 16; 6 days at 37° C; read-out: MIC
M. hyopneumoniae UCD 1 = assay: as above; assay type: cell-based; settings: Mesomycoplasma hyopneumoniae, UCD1, 144 h
M. hyopneumoniae TAM 6N = assay: as above; assay type: cell-based; settings: Mesomycoplasma hyopneumoniae, TAM6N, 144 h; M. hyopneumoniae TAM 6N; 6 days at 37° C; read-out: MIC
[1] = system: M. hyopneumoniae ATCC 25095; assay: as above; assay type: cell-based; settings: Mesomycoplasma hyopneumoniae, ATCC25095, 144 h; M. hyopneumoniae ATCC 25095; 6 days at 37° C; read-out: MIC
M. hyorhinis ATCC 23234 = assay: as above; assay type: cell-based; settings: Mesomycoplasma hyorhinis, ATCC23234, 144 h; M. hyorhinis ATCC 23234; 6 days at 37° C; read-out: MIC
M. hyorhinis ATCC 25021 = assay: as above; assay type: cell-based; settings: Mesomycoplasma hyorhinis, ATCC25021, 144 h; M. hyorhinis ATCC 25021; 6 days at 37° C; read-out: MIC
[2] = system: M. hyosynoviae ATCC 25591; assay: as above; assay type: cell-based; settings: 144 h; M. hyosynoviae ATCC 25591; 6 days at 37° C; read-out: MIC
M. bovis NCTC 10131 = assay: microbe, parasite or virus in culture; assay type: cell-based; settings: NCTC10131, 144 h
[3] = system: M. bovigenitalium ATCC 14173; assay: MIC against Mycoplasma in vitro (Friis broth with agarose); assay type: cell-based; settings: 144 h; M. bovigenitalium ATCC 14173; 6 days at 37° C; read-out: MIC
M. dispar NCTC 10125 = assay: as above; assay type: cell-based; settings: 144 h
M. gallisepticum S6 = assay: as above; assay type: cell-based; settings: Mycoplasmoides gallisepticum, 144 h; M. gallisepticum S6; 6 days at 37° C; read-out: MIC
M. pneumoniae ATCC 15492 = assay: as above; assay type: cell-based; settings: Mycoplasmoides pneumoniae, ATCC15492, 144 h; M. pneumoniae ATCC 15492; 6 days at 37° C; read-out: MIC
E. coli NCTC 10418 = assay: MIC against veterinary bacteria in vitro (Diagnostic Sensitivity Test Agar); settings: Escherichia coli, NCTC10418, 18 h
Experimental: (§1) The activity of the normonyl derivatives of the Examples against various veterinarily important bacteria, was assayed in vitro using two-fold serial dilutions in Diagnostic Sensitivity Test Agar inoculated with 10^4 organisms.

E. coli E1 = assay: as above; settings: Escherichia coli, E1, 18 h
Experimental: as §1

S. dublin S7 = assay: as above; settings: Salmonella enterica, S7, 18 h
Experimental: as §1

S. typhimurium S18 = assay: as above; settings: Salmonella enterica, 18 h
Experimental: as §1

Bord. bronchiseptica B08 = assay: as above; settings: Bordetella bronchiseptica, B08, 18 h
Experimental: as §1

Bord. bronchiseptica B09 = assay: as above; settings: Bordetella bronchiseptica, B09, 18 h
Experimental: as §1

Past. multocida PA1 = assay: as above; settings: Pasteurella multocida, PA1, 18 h
Experimental: as §1

Past. multocida PA2 = assay: as above; settings: Pasteurella multocida, PA2, 18 h
Experimental: as §1

Past. haemolytica PA5 = assay: as above; settings: Mannheimia haemolytica, PA5, 18 h
Experimental: as §1

[4] = system: Erysipelothrix rhusiopathiae NCTC 8163; assay: as above; settings: NCTC8163, 18 h
Experimental: as §1

[5] = system: Corynebacterium pyogenes CY1; assay: as above; settings: CY1, 18 h
Experimental: as §1

[6] = system: Staph. aureus B4 (pen. resistant); assay: as above; settings: Staphylococcus aureus, 18 h
Experimental: as §1

[7] = system: Staph. aureus 152 (pen. sens); assay: as above; settings: Staphylococcus aureus, 18 h
Experimental: as §1

Staph. aureus Oxford = assay: as above; settings: Staphylococcus aureus, 18 h
Experimental: as §1

[8] = system: Strep. suis (group D) SPS11; assay: as above; settings: Streptococcus suis, 18 h
Experimental: as §1

Strep. uberis SPU1 = assay: as above; settings: Streptococcus uberis, SPU1, 18 h
Experimental: as §1

Strep. agalactiae SPA1 = assay: as above; settings: Streptococcus agalactiae, SPA1, 18 h
Experimental: as §1

Work on CC(=Cc1nnc(-c2cccc(C#N)c2)o1)CC1OCC(CC2OC2C(C)C(C)O)C(O)C1O (stereo not drawn) [Example 11, 2-(m-Cyanophenyl)-5-(1-normon-2-yl)-1,3,4-oxadiazole A] yielded an MIC (M. hyopneumoniae JF 435) of 0.25 µg/mL (≈ 0.532 µM), an MIC (M. hyopneumoniae MS 16) of 0.1 µg/mL (≈ 0.213 µM) and an MIC (M. hyopneumoniae UCD 1) of 0.25 µg/mL (≈ 0.532 µM). For the same compound, the MIC (M. hyopneumoniae TAM 6N) was 0.25 µg/mL (≈ 0.532 µM), the MIC [1] was 0.25 µg/mL (≈ 0.532 µM) and the MIC (M. hyorhinis ATCC 23234) was 0.1 µg/mL (≈ 0.213 µM). It also gave an MIC (M. hyorhinis ATCC 25021) of 0.1 µg/mL (≈ 0.213 µM), an MIC [2] of 0.5 µg/mL (≈ 1.06 µM) and an MIC (M. bovis NCTC 10131) of 0.05 µg/mL (≈ 0.106 µM). For the same compound, the MIC [3] was 0.1 µg/mL (≈ 0.213 µM), the MIC (M. dispar NCTC 10125) was 0.05 µg/mL (≈ 0.106 µM) and the MIC (M. gallisepticum S6) was greater than 10 µg/mL. It also gave an MIC (M. pneumoniae ATCC 15492) greater than 10 µg/mL, an MIC (E. coli NCTC 10418) greater than 80 µg/mL and an MIC (E. coli E1) greater than 80 µg/mL. The MIC (S. dublin S7) was greater than 80 µg/mL, the MIC (S. typhimurium S18) was greater than 80 µg/mL and the MIC (Bord. bronchiseptica B08) was greater than 80 µg/mL. The MIC (Bord. bronchiseptica B09) was 40 µg/mL (≈ 85.2 µM), the MIC (Past. multocida PA1) was 2.5 µg/mL (≈ 5.32 µM) and the MIC (Past. multocida PA2) was 0.312 µg/mL (≈ 0.664 µM). For the same compound, the MIC (Past. haemolytica PA5) was 10 µg/mL (≈ 21.3 µM), the MIC [4] was 40 µg/mL (≈ 85.2 µM) and the MIC [5] was greater than 80 µg/mL. For the same compound, the MIC [6] was 20 µg/mL (≈ 42.6 µM), the MIC [7] was 20 µg/mL (≈ 42.6 µM) and the MIC (Staph. aureus Oxford) was 5 µg/mL (≈ 10.6 µM). The MIC [8] was greater than 80 µg/mL, the MIC (Strep. uberis SPU1) was 2.5 µg/mL (≈ 5.32 µM) and the MIC (Strep. agalactiae SPA1) was 5 µg/mL (≈ 10.6 µM).
